Key:
[1] = system: DoTc 4510 (BRCA2 mutated) cells; assay: Caspase 3/7 apoptosis Incucyte assay with olaparib, DoTc 4510; assay type: cell-based; details: vs 0.05% DMSO, combination also vs single agents p<0.0001
Procedure: (§1) BT549 (BRCA wild type) (A) and DoTc 4510 (BRCA2 mutated) (B) cells were seeded in duplicate into tissue culture treated black-sided, clear-bottom 96-well plates at 5,000^cells/well and allowed to adhere and establish for 24 h. Cells were treated with indicated concentrations of DMSO, compound 23, or Olaparib (FIGS. 13A and 13B) either alone or in combination and were labelled with 1× Essen Bioscience IncuCyte® Caspase-3/7 Green Reagent (final concentration 5 μM). Treated plates were imaged every 2 hours for 72 hours with the IncuCyte® S3 Live-Cell Analysis System. At each timepoint, one image per well was taken in both brightfield and FITC channels on the IncuCyte® S3 Live-Cell Analysis System. Images were analyzed for number of green objects per mm^2 using the IncuCyte S3 v2017A software.

Raji cells [2] = assay: Raji human non-Hodgkin's lymphoma model in SCID mice, combination with rituximab
Procedure: Female CB17 mice with severe combined immunodeficiency (SCID) were intravenously (IV) injected in the tail vein with Raji cells on Day 0 and treated from Day 5 to Day 37 by administration of either: vehicle (0.5% methylcellulose, 0.2% Polysorbate 80 in deionized water+1 eq HCl) daily, orally (PO) or compound 23 at 30 mg/kg daily, PO. Anti-CD20 antibody (rituximab) at 20 mg/kg was intraperitoneally (IP) administered on Day 5, 10, and 15, either alone or in combination with compound 23 at 30 mg/kg daily, PO.

CT26 tumors [3] = assay: Flow cytometry of tumor-infiltrating immune cells in CT26 tumors; assay type: in vivo, mice
Procedure: CT26 tumors were harvested after 19 doses of compound 23 or vehicle and tumor-infiltrating immune cell density and phenotype was assessed by flow cytometry.

orthotopic 4T1 tumors = assay: Flow cytometry of tumor and blood CD8+ T-cells in 4T1-tumor-bearing mice; assay type: in vivo; details: Day 28
MC38 tumors = assay: MC38 model, combination with anti-PD-1 antibody; assay type: in vivo, mice
Procedure: (§2) This example provides assays and results for treating tumor models in vivo with combinations of Cbl-b compounds and anti-PD1 antibodies as described herein. The antibody is a mouse anti-PD1 RMP1-14 antibody, useful in mouse in vivo assays as model for administration of human PD-1 axis antagonists for treatment of human cancer.
Beginning on Day 10, tumor volumes were measured twice weekly.

CT26 tumors [4] = assay: CT26 model, combination with anti-PD-1 antibody; assay type: in vivo, mice
Procedure: as §2
FIG. 6 provides results in three tumor models. […] Beginning on Day 10, tumor volumes were measured twice weekly.

CT26 tumors [5] = assay: CT26 tumor volume in mice, single agent oral dosing; assay type: in vivo; details: oral administration in mice; colon carcinoma model CT26
Procedure: Mice bearing tumors on their left and right flanks were treated from Day 7 to Day 32 with oral compound 23 at 10 mg/kg (blue circles) or 30 mg/kg (red circles) or vehicle (black squares). Volumes at Day 25 are indicated. Statistics were calculated with one-way ANOVA and Dunn's multiple comparisons test **P≤0.01.

Raji cells [6] = assay: Raji model in SCID mice with NK cell depletion (anti-asialo-GM1); assay type: in vivo; details: p<0.0001
Procedure: Three additional groups of mice were treated in the presence of depleting antibodies for NK cells (anti-asialo-GM1).

[7] = system: total primary human T-cells; assay: IL-2 and IFN-γ release (ELISA) from stimulated primary human T-cells; assay type: cell-based; details: primary human T-cells stimulated with anti-CD3, with and without CD28 co-stimulation; lesser degree without co-stimulation
Procedure: Cells were stimulated with plate bound anti-CD3 (right) or anti-CD3/anti-CD28 (left) in the presence or absence of the indicated concentration of compound 23. Release of IL-2 or IFN-γ were assessed by ELISA. Compound 23 inhibition of Cbl-b enhanced IL-2 and IFN-γ secretion in primary human T-cells stimulated with anti-CD3 antibodies, in both the presence and absence of CD28 co-stimulation, although to a lesser degree in the absence of co-stimulation.

4T1 tumors = assay: 4T1 metastatic breast carcinoma survival model with primary tumor resection; assay type: in vivo, mice
Source text: Another in vivo study evaluated the ability of compound 23 treatment, started before the primary tumor resection, to eradicate 4T1 breast carcinoma metastatic disease. The 4T1 triple negative mammary carcinoma is a transplantable tumor cell line that is highly tumorigenic and invasive and, unlike most tumor models, spontaneously metastasizes from a primary tumor growing in the mammary gland to multiple distant sites including lymph nodes, blood, liver, lung, brain, and bone. Tumor cells are easily transplanted into the mammary glands so that the primary tumor grows in the anatomically relevant site. The progressive spread of 4T1 metastases to other organs is very similar to that of human mammary cancer. Animals die from disseminated metastatic disease regardless of resection of the primary tumor (Pulaski et al., 2000, Current Protocols in Immunology 39(1):20.2.1-20.2.16). […] Beginning on Day 7, tumor volumes were measured twice weekly until they reached a mean tumor volume of 145 mm^3 when the primary tumors were resected on Day 14 and 15 (dotted line). Median survival time were calculated for each group and body weights were monitored until the end of the study on Day 140. Body weights were measured twice weekly then once weekly starting Day 47. […] Statistical significance of differences in conditional survival between groups was evaluated using the Log-rank (Mantel-Cox) test. […] Median survival is reported as undefined for the compound 23 group, as survival exceeds 50% at Day 140.

[8] = system: BT549 (BRCA wild type) cells; assay: Caspase 3/7 apoptosis Incucyte assay with olaparib, BT549; assay type: cell-based; details: 1 μM compound 23, 0.05 μM olaparib, vs 0.05% DMSO, combination also vs single agents p<0.0001
Procedure: as §1
Using a caspase 3/7 apoptosis Incucyte assay, the effect of compound 23, PARPi and the combination of compound 23, and PARPi on tumor cell apoptosis was assessed in both BRCA wild type and mutated tumor cell lines in vitro.

[9] = blood of 4T1-tumor-bearing mice

With C[C@H]1CCCN(Cc2cc3c(c(C(F)(F)F)c2)CN(c2cccc([C@]4(c5nncn5C)C[C@@H](C)C4)c2)C3=O)C1 [compound 23] as the compound, how does the “tumor cell apoptosis (caspase 3/7)” value [1] read?
Its value is “did not significantly increase tumor cell apoptosis”.

What about the “survival compared to untreated mice” value (Raji cells [2]; compound 23 30 mg/kg daily PO, rituximab 20 mg/kg IP Day 5, 10, 15, p<0.0001) of the same compound?
Its value is “significantly higher”.

And the “survival compared to mice treated with the combination of compound 23 and rituximab” value (Raji cells [2]; p<0.0001)?
Its value is “significantly lower”.

And the “CD8+ T-cells to Tregs ratio” value (CT26 tumors [3]; 19 doses)?
Its value is “increased”.

And the “CD8+ effector T-cells (PD1+) to Tregs ratio” value (CT26 tumors [3]; 19 doses)?
The value was “increased”.

What about the “frequency of CD8+ T-cells that express the activation marker CD29” value (CT26 tumors [3]; 19 doses) of the same compound?
Its value is “increased”.

And the “frequency of total CD3+ T-cells as a percentage of CD45+ leukocytes” value (CT26 tumors [3]; 19 doses)?
The value was “increased”.

What about the “frequency of total CD8+ T-cells as a percentage of CD45+ leukocytes” value (CT26 tumors [3]; 19 doses) of the same compound?
The value was “increased”.

And the “frequency of tumor-infiltrating NK cells with cytotoxic phenotype (Granzyme+)” value (CT26 tumors [3]; 19 doses)?
The value was “increased”.

What about the “number of total CD8+ T-cells per gram of tumor” value (CT26 tumors [3]; 19 doses) of the same compound?
The value was “increased”.

And the “number of tumor-infiltrating leukocytes (TIL) per gram of tumor” value (CT26 tumors [3]; 19 doses 30 mg/kg daily PO)?
Its value is “increased”.

What about the “frequency of tumor gp70 antigen-specific CD8+ T-cells (AH1 Dextramer+CD8+)” value (orthotopic 4T1 tumors; 4T1 tumors, 30 mg/kg daily PO) of the same compound?
Its value is “increased”.

What about the “frequency of tumor gp70 antigen-specific CD8+ T-cells with exhaustion phenotype (PD-1+ LAG3+)” value (orthotopic 4T1 tumors; 4T1 tumors, 30 mg/kg daily PO) of the same compound?
The value was “decreased”.

What about the “frequency of circulating CD8+ T-cells with activated phenotype (PD-1+)” value (orthotopic 4T1 tumors; [9]) of the same compound?
The value was “increased”.

And the “frequency of circulating CD8+ T-cells with memory phenotype (CD44+CD27+CD127+)” value (orthotopic 4T1 tumors; [9])?
Its value is “increased”.

What about the “interaction with PD-1 antibody blockade” value (MC38 tumors) of the same compound?
The value was “synergizes”.

And the primary tumor volume (MC38 tumors; single agents vs vehicle, combination vs vehicle or either single agent)?
The primary tumor volume was “significantly smaller primary tumors”.

What about the “interaction with PD-1 antibody blockade” value (CT26 tumors [4]) of the same compound?
Its value is “synergizes”.

What about the TGI (CT26 tumors [4]; compared to vehicle controls, compound 23 30 mg/kg daily PO, anti-PD-1 10 mg/kg twice weekly IP) of the same compound?
The TGI was 62%.

And the “tumor volume compared to vehicle controls” value (CT26 tumors [4]; compound 23 30 mg/kg daily PO)?
The value was “significantly reduced tumor volume”.

And the median survival time (CT26 tumors [4]; compound 23 30 mg/kg daily PO, anti-PD-1 10 mg/kg twice weekly IP, controls 27 days)?
Its median survival time is 38 days.

What about the anti-tumor activity (CT26 tumors [5]) of the same compound?
The anti-tumor activity was “significant anti-tumor activity”.

What about the “effect of NK cell depletion on activity (survival)” value (Raji cells [6]) of the same compound?
The value was “abrogates”.

What about the IFN-γ secretion [7] of the same compound?
Its IFN-γ secretion is “enhanced”.

And the IL-2 secretion [7]?
The IL-2 secretion was “enhanced”.

And the “median survival time compared to vehicle control” value (4T1 tumors; 30 mg/kg daily PO Day 8 to 46, primary tumors resected Day 14 and 15)?
Its value is “significantly increased”.

And the median survival (4T1 tumors; 30 mg/kg daily PO, study end Day 140)?
The median survival was “undefined”.

What about the anti-tumor activity (4T1 tumors; oral administration in mice, metastatic triple negative breast tumor model 4T1) of the same compound?
The anti-tumor activity was “significant anti-tumor activity”.

And the “tumor cell apoptosis (caspase 3/7)” value [8]?
The value was “did not undergo a significant increase in apoptosis”.

Source: US12016860B2, “Combination therapies with Cbl-b inhibitor compounds” (Nurix Therapeutics, Inc., priority 2021, dated 2024)
